Source: US10100050B2 (CHIESI FARMACEUTICI S.P.A., priority 2015, dated 2018)
“And” between values parts separate entries of the source, which are not always exact repeats. Equal entries are not always repeated. Structures can show the parent of a compound that is named as a salt.

Tests used:
p38alpha = target: T1, p38alpha (Homo sapiens, UniProt Q16539); assay: P38alpha enzyme inhibition assay (Alphascreen kinase activity assay); assay type: biochemical; details: IC50 classes; 2 hours preincubation at 25° C., 250 μM ATP; read-out: p38α inhibition
T1 construct: purchased Invitrogen PV3304
T1 sequence (Q16539 whole entry): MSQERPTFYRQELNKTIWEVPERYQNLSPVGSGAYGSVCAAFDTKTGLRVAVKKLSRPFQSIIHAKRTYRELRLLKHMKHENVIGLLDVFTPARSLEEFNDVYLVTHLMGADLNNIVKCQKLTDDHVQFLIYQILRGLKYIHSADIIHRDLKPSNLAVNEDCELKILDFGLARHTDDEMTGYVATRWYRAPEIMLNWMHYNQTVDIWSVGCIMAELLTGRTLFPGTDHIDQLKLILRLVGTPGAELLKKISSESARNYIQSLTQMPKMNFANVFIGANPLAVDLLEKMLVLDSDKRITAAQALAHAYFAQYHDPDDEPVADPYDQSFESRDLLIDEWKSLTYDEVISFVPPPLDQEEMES
Protocol: P38alpha Enzyme Inhibition Assay
The inhibitory activity of compounds was determined using an Alphascreen® (Perkin Elmer) based kinase activity assay. Kinase reactions consisted of 25 mM HEPES pH 7.5, 10 mM MgCl2, 100 μM Na3VO4, 2 mM DTT, 0.05 mg/ml Tween […] (Invitrogen, PV3304), 1% DMSO and 0.3 μg/ml ATF-2 fusion protein (New England Biolabs, 9224). Compounds were incubated under these conditions for 2 hours, at 25° C., prior to the initiation of the kinase activity by the addition of the 250 μM ATP. Reaction volumes were 20 uL. After 1 hr at 25° C. reactions were stopped by the adding 10 uL of 25 mM HEPES pH 7.5 containing 62.5 mM EDTA, 0.05% Triton X-100, 10% BSA and 0.83 ng/uL anti-phospho-ATF2 antibody (Abcam, ab28812). Detection was performed by measuring luminescence following the addition of Alphascreen Donor beads (Perkin Elmer 6765300) and Protein A Alphascreen Acceptor beads (Perkin Elmer 6760137), both at a final concentration of 20 ug/ml. IC50 values were determined from concentration-response curves.

BEAS-2B cells = assay: TNFα-stimulated BEAS-2B IL-8 release assay; assay type: cell-based; details: Homo sapiens, IC50 classes, TNF-α 10 ng/ml, 18 h, read-out: TNFα-stimulated BEAS-2B IL-8 release inhibition
Protocol: TNFα-Stimulated BEAS-2B IL-8 Release Assay
Human bronchial epithelial cell line BEAS-2B was purchased from Sigma (St. Louis, Mo.). BEAS-2B cells were cultured in Bronchial Epithelial cell Growth Medium (BEGM), prepared by supplementing Bronchial Epithelial Basal Medium with SingleQuotes™ (Lonza, Switzerland), which contains retinoic acid, epidermal growth factor, epinephrine, transferrin, triiodothyronin, insulin, hydrocortisone, antimicrobial agents, and bovine pituitary extract. In addition, BEGM medium was supplemented with 2 mM glutamine, 100 U penicillin and 100 μg/ml streptomycin (Life Technologies), in an atmosphere of 95% air and 5% CO2 at 37° C.
BEAS-2B were seeded in 48-well plates at the density of 3×10^4 cells per well, grown to approximately 80-90% confluence. Cells were pre-incubated with p38 inhibitors for 1 hour and then stimulated with TNF-α (10 ng/ml) for 18 h at 37° C. with 5% CO2. Subsequently, supernatants were collected and used for measuring IL-8 levels using a paired antibody quantitative ELISA kit purchased from Life Technologies (detection limit: […]). All the treatments were performed at least in quadruplicate.
A concentration-response curve to each test compound was performed and the effect of compound in each experiment was expressed as a percentage inhibition of the control IL-8 release. Compound potency (IC50) was calculated by the analysis of the sigmoidal dose-response curve (variable slope) elaborated by Graph Pad PRISM4 program.

[1] = system: Peripheral Blood Mononuclear Cells (PBMCs); assay: LPS-stimulated PBMC TNFα release assay; assay type: cell-based; details: IC50 classes; human PBMC, LPS 10 ng/ml, 18 h; read-out: LPS-stimulated PBMC TNFα release inhibition
Protocol: 1-10 nM ‘+’; • <1 nM ‘++’ LPS-Stimulated PBMC TNFα Release Assay
Peripheral Blood Mononuclear Cells (PBMCs) were isolated from healthy human volunteer blood using a standard density gradient centrifugation technique. Citrated blood was placed onto Histopaque™ and centrifuged. The PBMCs were removed from the density gradient interface and washed in phosphate buffered saline (PBS). The PBMCs were suspended in RPMI 1640 medium (without serum), dispensed into a 96-well plate and incubated at 37° C. for 3 h in a humidified incubator. After incubation, the medium was replaced (with medium containing 1% foetal bovine serum) and the plate incubated at 37° C., for 1 h, in the presence of test compound or the appropriate vehicle. LPS (10 ng/ml), or an appropriate vehicle control, was then added to the cells and the plate returned to the incubator for 18 h. Cell-free supernatants were removed and assayed for TNFα levels using MSD plates on the Sector Imager 6000 (MesoScale).
A dose response curve to each test compound was performed and the effect of compound in each experiment was expressed as a percentage inhibition of the control TNFα release. Dose response curves were plotted and compound potency (IC50) was determined. Compounds were tested in at least three separate experiments.

Row | Structure (SMILES) | IC50 (p38alpha) | IC50 (BEAS-2B cells) [nM] | IC50 [1] [nM]
1 | COc1c(CO)cc(C(C)(C)C)cc1NC(=O)N[C@H]1CC[C@@H](Oc2ccc3nnc(C(C)(C)N(C)C)n3c2)c2ccccc21 [Example 4, 1-(5-tert-Butyl-3-hydroxymethyl-2-methoxy-phenyl)-3-{(1S,4R)-4-[3-(1-dimethylamino-1-methyl-ethyl)-[1,2,4]triazolo[4,3-a]pyridin-6-yloxy]-1,2,3,4-tetrahydro-naphthalen-1-yl}-urea hydrochloride salt] | < 1 nM | < 0.3 | < 1
2 | COc1c(CO)cc(C(C)(C)C)cc1NC(=O)N[C@H]1CC[C@@H](Oc2ccc3nnc([C@@H]4CCCCN4C)n3c2)c2ccccc21 [Example 5, 1-(5-tert-Butyl-3-hydroxymethyl-2-methoxy-phenyl)-3-{(1S,4R)-4-[3-((S)-1-methyl-piperidin-2-yl)-[1,2,4]triazolo[4,3-a]pyridin-6-yloxy]-1,2,3,4-tetrahydro-naphthalen-1-yl}-urea] | 1 to 10 nM | < 0.3 | < 1
3 | COc1c(CO)cc(C(C)(C)C)cc1NC(=O)N[C@H]1CC[C@@H](Oc2ccc3nnc([C@@H]4CCCN4C(C)C)n3c2)c2ccccc21 [Example 6, 1-(5-tert-Butyl-3-hydroxymethyl-2-methoxy-phenyl)-3-{(1S,4R)-4-[3-((S)-1-isopropyl-pyrrolidin-2-yl)-[1,2,4]triazolo[4,3-a]pyridin-6-yloxy]-1,2,3,4-tetrahydro-naphthalen-1-yl}-urea] | 1 to 10 nM | < 0.3 | < 1
4 | COc1c(NC(C)=O)cc(C(C)(C)C)cc1NC(=O)N[C@H]1CC[C@@H](Oc2ccc3nnc([C@]4(C)CCCN4C)n3c2)c2ccccc21 [Example 8, N-[5-tert-Butyl-3-(3-{(1S,4R)-4-[3-((S)-1,2-dimethyl-pyrrolidin-2-yl)-[1,2,4]triazolo[4,3-a]pyridin-6-yloxy]-1,2,3,4-tetrahydro-naphthalen-1-yl}-ureido)-2-methoxy-phenyl]-acetamide] | 1 to 10 nM | < 0.3 | < 1
5 | COc1c(NC(C)=O)cc(C(C)(C)C)cc1NC(=O)N[C@H]1CC[C@@H](Oc2ccc3nnc([C@@H]4CCCN4C)n3c2)c2ccccc21 [Example 11, N-[5-tert-Butyl-2-methoxy-3-(3-{(1S,4R)-4-[3-((S)-1-methyl-pyrrolidin-2-yl)-[1,2,4]triazolo[4,3-a]pyridin-6-yloxy]-1,2,3,4-tetrahydro-naphthalen-1-yl}-ureido)-phenyl]-acetamide] | < 1 nM | > 1 | < 1
6 | COc1c(NC(C)=O)cc(C(C)(C)C)cc1NC(=O)N[C@H]1CC[C@@H](Oc2ccc3nnc([C@@H]4CCCCN4C)n3c2)c2ccccc21 [Example 12, N-[5-tert-Butyl-2-methoxy-3-(3-{(1S,4R)-4-[3-((S)-1-methyl-piperidin-2-yl)-[1,2,4]triazolo[4,3-a]pyridin-6-yloxy]-1,2,3,4-tetrahydro-naphthalen-1-yl}-ureido)-phenyl]-acetamide] | < 1 nM | 0.3 to 1 | 1 to 5
7 | CCS(=O)(=O)Nc1cc(C(C)(C)C)cc(NC(=O)N[C@H]2CC[C@@H](Oc3ccc4nnc(C(C)(C)N(C)C)n4c3)c3ccccc32)c1OC [Example 13, Ethanesulfonic acid [5-tert-butyl-3-(3-{(1S,4R)-4-[3(1-dimethylamino-1-methyl-ethyl)-[1,2,4]triazolo[4,3-a]pyridin-6-yloxy]-1,2,3,4-tetrahydro-naphthalen-1-yl}-ureido)-2-methoxy-phenyl]-amide hydrochloride salt] | 1 to 10 nM | < 0.3 | < 1

Further lines, with some results ahead:

Row | IC50 (p38alpha) | Structure (SMILES) | IC50 (BEAS-2B cells) [nM] | IC50 [1] [nM]
8 | < 1 nM | COc1c(CO)cc(C(C)(C)C)cc1NC(=O)N[C@H]1CC[C@@H](Oc2ccc3nnc([C@]4(C)CCCN4C)n3c2)c2ccccc21 [Example 3, 1-(5-tert-Butyl-3-hydroxymethyl-2-methoxy-phenyl)-3-{(1S,4R)-4-[-3-((S)-1,2-dimethyl-pyrrolidin-2-yl)-[1,2,4]triazolo[4,3-a]pyridin-6-yloxy]-1,2,3,4-tetrahydro-naphthalen-1-yl}-urea hydrochloride salt] | < 0.3 | < 1
9 | < 1 nM | CNC(=O)c1cc(C(C)(C)C)cc(NC(=O)N[C@H]2CC[C@@H](Oc3ccc4nnc([C@@H]5CCCN5C)n4c3)c3ccccc32)c1OC [Example 7, 5-tert-Butyl-2-methoxy-N-methyl-3-(3-{(1S,4R)-4-[3-((S)-1-methyl-pyrrolidin-2-yl)-[1,2,4]triazolo[4,3-a]pyridin-6-yloxy]-1,2,3,4-tetrahydro-naphthalen-1-yl}-ureido)-benzamide hydrochloride salt] | 0.3 to 1 | < 1
10 | 1 to 10 nM | COc1c(NC(C)=O)cc(C(C)(C)C)cc1NC(=O)N[C@H]1CC[C@@H](Oc2ccc3nnc([C@@H]4CCCN4C(C)C)n3c2)c2ccccc21 [Example 9, N-[5-tert-Butyl-3-(3-{(1S,4R)-4-[3-((S)-1-isopropyl-pyrrolidin-2-yl)-[1,2,4]triazolo[4,3-a]pyridin-6-yloxy]-1,2,3,4-tetrahydro-naphthalen-1-yl}-ureido)-2-methoxy-phenyl]-acetamide] | < 0.3 | < 1
11 | 1 to 10 nM | COc1c(NC(C)=O)cc(C(C)(C)C)cc1NC(=O)N[C@H]1CC[C@@H](Oc2ccc3nnc(C(C)(C)N(C)C)n3c2)c2ccccc21 [Example 10, N-[5-tert-Butyl-3-(3-{(1S,4R)-4-[3-(1-dimethylamino-1-methyl-ethyl)-[1,2,4]triazolo[4,3-a]pyridin-6-yloxy]-1,2,3,4-tetrahydro-naphthalen-1-yl}-ureido)-2-methoxy-phenyl]-acetamide] | < 0.3 | < 1
12 | 1 to 10 nM | COc1c(NC(=O)N[C@H]2CC[C@@H](Oc3ccc4nnc(C(C)(C)N(C)C)n4c3)c3ccccc32)cc(C(C)(C)C)cc1NS(=O)(=O)C1CC1 [Example 14, Cyclopropanesulfonic acid [5-tert-butyl-3-(3-{(1S,4R)-4-[3(1-dimethylamino-1-methyl-ethyl)-[1,2,4]triazolo[4,3-a]pyridin-6-yloxy]-1,2,3,4-tetrahydro-naphthalen-1-yl}-ureido)-2-methoxy-phenyl]-amide partial formate salt] | < 0.3 | < 1
13 | 1 to 10 nM | COCCS(=O)(=O)Nc1cc(C(C)(C)C)cc(NC(=O)N[C@H]2CC[C@@H](Oc3ccc4nnc(C(C)(C)N(C)C)n4c3)c3ccccc32)c1OC [Example 15, 2-Methoxy-ethanesulfonic acid [5-tert-butyl-3-(3-{(1S,4R)-4-[3(1-dimethylamino-1-methyl-ethyl)-[1,2,4]triazolo[4,3-a]pyridin-6-yloxy]-1,2,3,4-tetrahydro-naphthalen-1-yl}-ureido)-2-methoxy-phenyl]-amide hydrochloride salt] | < 0.3 | < 1
14 | 1 to 10 nM and < 1 nM | COc1c(NC(=O)N[C@H]2CC[C@@H](Oc3ccc4nnc(C(C)(C)N(C)C)n4c3)c3ccccc32)cc(C(C)(C)C)cc1NS(=O)(=O)CC(C)C [Example 16, 2-Methyl-propane-1-sulfonic acid [5-tert-butyl-3-(3-{(1S,4R)-4-[3-(1-dimethylamino-1-methyl-ethyl)-[1,2,4]triazolo[4,3-a]pyridin-6-yloxy]-1,2,3,4-tetrahydro-naphthalen-1-yl}-ureido)-2-methoxy-phenyl]-amide hydrochloride salt] | 0.3 to 1 | 1 to 5
